In patent publication US9174949B2, “Hedgehog inhibitors” (SELEXAGEN THERAPEUTICS, INC., priority 2010, dated 2015):

Each compound was assayed on hedgehog pathway signaling (assay: Modified Method A: purmorphamine stimulated alkaline phosphatase activity in C3H10T1/2 cells). Conditions: Mus musculus, C3H 10T1/2, compound at 500 nM, 100 nM purmorphamine, 72 hours, read-out: Activity Ranking (percent activity compared to control alkaline phosphatase activity).
Assay type: cell-based

| SMILES | activity at 0.5 µM [%] |
| --- | --- |
| Cc1nc(-c2ccc(NC(=O)c3ccccc3S(C)(=O)=O)cc2)cs1 [Example 15] | 76 to 100 |
| Cc1nc(-c2ccc(NC(=O)c3ccccc3Cl)cc2)cs1 [Example 14] | 0 to 25 |
| Cc1nc(-c2ccc(NC(=O)c3ccc(S(C)(=O)=O)cc3Cl)cc2Cl)cs1 [Example 7, 2-chloro-N-(3-chloro-4-(2-methylthiazol-4-yl)phenyl)-4-(methylsulfonyl)benzamide] | 51 to 75 |
| Cc1nc(-c2ccc(NC(=O)c3ccc(C#N)cc3)cc2)cs1 [Example 18] | 26 to 50 |
| Cc1nc(-c2ccc(NC(=O)c3ccc(S(C)(=O)=O)cc3Cl)cc2)cs1 [Example 4, 2-chloro-4-(methylsulfonyl)-N-(4-(2-methylthiazol-4-yl)phenyl)benzamide] | 0 to 25 |
| COc1cc(C(=O)Nc2ccc(-c3csc(C)n3)cc2)cc(OC)c1OC [Example 2] | 51 to 75 |
| COc1ccc(C(=O)Nc2ccc(-c3csc(C)n3)cc2)c(F)c1 [Example 17] | 0 to 25 |
| CS(=O)(=O)c1ccc(C(=O)Nc2ccc(-c3csc(CO)n3)cc2)c(Cl)c1 [Example 13, 2-chloro-N-(4-(2-(hydroxymethyl)thiazol-4-yl)phenyl)-4-(methylsulfonyl)benzamide] | 51 to 75 |
| COc1ccc(C(=O)Nc2ccc(-c3csc(C)n3)cc2)c(C)c1 [Example 16] | 0 to 25 |
| COc1ccc(C(=O)Nc2ccc(-c3csc(C)n3)cc2)c(Cl)c1 [Example 8] | 0 to 25 |
| COc1ccc(C(=O)Nc2ccc(-c3csc(C)n3)cc2)c(CN2CCOCC2)c1 [Example 5] | 0 to 25 |
| Cc1nc(-c2ccc(NC(=O)c3ccc(S(C)(=O)=O)cc3Cl)cc2)co1 [Example 6] | 26 to 50 |
| O=C(Nc1ccc(-c2cscn2)cc1)c1ccccc1Cl [Example 10, 2-chloro-N-(4-(thiazol-4-yl)phenyl)benzamide] | 26 to 50 |
| CS(=O)(=O)c1ccc(C(=O)Nc2ccc(-c3cscn3)cc2)c(Cl)c1 [Example 11, 2-chloro-(4-methylsulfonyl)-N-(4-(thiazol-4-yl)phenyl)benzamide] | 26 to 50 |
| Cc1nc(-c2ccc(NC(=O)c3ccc(Cl)cc3Cl)cc2)cs1 [Example 1, 2,4-dichloro-N-(4-(2-methylthiazol-4-yl)phenyl)benzamide] | 0 to 25 |
| COc1ccc(C(=O)Nc2ccc(-c3csc(C)n3)cc2)cc1 [Example 3] | 0 to 25 |
| Cc1nc(-c2ccc(N(C)C(=O)c3ccc(S(C)(=O)=O)cc3Cl)cc2)cs1 [Example 9, 2-chloro-N-methyl-4-(methylsulfonyl)-N-(4-(2-methylthiazol-4-yl)phenyl)benzamide] | 76 to 100 |
| CC(C)(O)c1nc(-c2ccc(NC(=O)c3ccc(S(C)(=O)=O)cc3Cl)cc2)cs1 [Example 12, 2-chloro-N-(4-(2-(2-hydroxypropan-2-yl)thiazol-4-yl)phenyl)-4-(methylsulfonyl)benzamide] | 26 to 50 |

What follows are compounds tested on hedgehog pathway signaling (assay: Method A: cell differentiation assay, sonic hedgehog stimulated alkaline phosphatase activity). Conditions: Mus musculus, Shh-N 2 μg/mL, 72 hours, C3H10T1/2 or M2-10B4 cells.
Assay type: cell-based
Procedure: The ability of compounds described in the current invention to inhibit hedgehog pathway signaling was determined from the following cell differentiation assays (Method A, or Modified Method A as described below) in which cellular alkaline phosphatase activity is assessed in the presence of control vehicle or test compound, as previously described in the literature (Wu et al., Chemistry & Biology, 11: 1229-1238, 2004; Couve-Privat, et al., Cancer Research, 64; 3559-3565, 2004; Dwyer et al., J. Biological Chemistry, 282: 8959-8968, 2007) with modifications as described below.
Method A: Mouse C3H10T1/2 (CCL-226™) or M2-10B4 (CRL-1972™) cells obtained from the American Type Tissue Culture Collection (Maryland, USA) were cultured to 60-80% confluence in Dulbecco's modified Eagle's Medium (C3H10T1/2 cells) containing heat-inactivated 10% fetal bovine serum or RPMI-1640 media (M2-10B4 cells) containing heat-inactivated 10% fetal bovine serum. Cell cultures were maintained in 10 U/mL penicillin, 100 μg/mL streptomycin and 2 mM glutamine. Cells were then trypsinized, counted and plated into 96-well microtiter plates prior to incubation overnight at 37° C. in 5% CO2. […] Similarly, an IC90 was determined. […]

| SMILES | IC90 [nM] |
| --- | --- |
| Cc1nc(-c2ccc(NC(=O)c3ccc(S(C)(=O)=O)cc3Cl)cc2)cs1 [Example 4, 2-chloro-4-(methylsulfonyl)-N-(4-(2-methylthiazol-4-yl)phenyl)benzamide] | 300 |

Same assay, conditions: Mus musculus, Shh-N 2 μg/mL, 72 hours, C3H10T1/2 or M2-10B4 cells, read-out: IC50 (50% inhibition of sonic hedgehog stimulated alkaline phosphatase activity)

| SMILES | IC50 [nM] |
| --- | --- |
| Cc1nc(-c2ccc(NC(=O)c3ccc(S(C)(=O)=O)cc3Cl)cc2)cs1 [Example 4, 2-chloro-4-(methylsulfonyl)-N-(4-(2-methylthiazol-4-yl)phenyl)benzamide] | 63 |
